In one test the target is eVP24–KPNA5-ΔIBB complex (Homo sapiens, UniProt O15131). Put plainly: biochemical. Format: binding, Human KPNA5; Ebola VP24.
Test [1] deals with monopartite NLS peptide (mpNLS) from the SV40 large T antigen (SV40). Put plainly: fluorescence polarisation. (In general: Fluorescence polarisation rises when a labelled molecule tumbles more slowly, as on binding a larger partner.)

pKd: −log10 of the molar value. Ends that are not written are not given here.

In general, pKd refers to the negative decadic logarithm of the Kd, by convention in mol/L. A higher pKd goes with a small Kd. STPPKKKRKVE [mpNLS] gave a pKd at eVP24–KPNA5-ΔIBB complex of 5.28.
“Human KPNA5 aa 66–508 (KPNA5-ΔIBB) (domain or fragment)” gave a pKd in test [1] of 5.28.
KRPAATKKAGQAKKKK [bpNLS]: the pKd at eVP24–KPNA5-ΔIBB complex was 6.68.

(Values after article PMC12390655 (Viruses, 2025).)
